These results are taken from patent US7951751B2, “Synergistic, crop plant-compatible herbicidal compositions comprising herbicides from the group of the benzoylpyrazoles” (Bayer Crop Science AG, priority 2005, dated 2011).

The subject of one data set is summer wheat. The data set can be described thus: Crop plant compatibility (damage) post-emergence, with and without safener. The class given is in vivo. How it is done:
Seeds of monocotyledonous and dicotyledonous weed and crop plants are place into sandy loam in wood fiber pots or in plastic pots, covered with soil and cultivated in a greenhouse, including during the vegetation period outdoors outside of the greenhouse, under good growth conditions. 2-3 weeks after sowing, the test plants are treated at the one- to three-leaf stage. The test compounds, formulated as wettable powders (WP) or liquid (EC) are, in various dosages with a water application rate of 300 I/ha (converted), with added wetting agent (0.2 to 0.3%), sprayed onto the plants and the surface of the soil. 3 to 4 weeks after the treatment of the test plants, the effect of the preparations is rated visually in comparison to untreated controls (herbicidal effect in percent (%): 100% effect=plants have died, 0% effect=like control plants). […]

The test system of a further data set is STEME. The data set can be described thus: Herbicidal post-emergence action, greenhouse pot test, visual rating. The class given is in vivo. To be noted: rated 3 to 4 weeks after treatment. How it is done:
Seeds of monocotyledonous and dicotyledonous weed and crop plants are place into sandy loam in wood fiber pots or in plastic pots, covered with soil and cultivated in a greenhouse, including during the vegetation period outdoors outside of the greenhouse, under good growth conditions. 2-3 weeks after sowing, the test plants are treated at the one- to three-leaf stage. The test compounds, formulated as wettable powders (WP) or liquid (EC) are, in various dosages with a water application rate of 300 I/ha (converted), with added wetting agent (0.2 to 0.3%), sprayed onto the plants and the surface of the soil. 3 to 4 weeks after the treatment of the test plants, the effect of the preparations is rated visually in comparison to untreated controls (herbicidal effect in percent (%): 100% effect=plants have died, 0% effect=like control plants).
If it is additionally to be tested as to whether safeners can improve the plant compatibility of test substances in the case of crop plants, the following options are used for applying the safener: • seeds of the crop plants are, before sowing, dressed with the safener substance (the amount of safener is stated in percent, based on the weight of the seed) • before the application of the test substances, the crop plants are sprayed with the safener at a certain application rate per hectare (usually 1 day before the application of the test substances) • the safener is applied together with the test substance as a tank mix (the amount of safener is stated in g/ha or as a ratio, based on the herbicide).
By comparing the effect of the test substances on crop plants without or with safener treatment, it is possible to assess the effect of the safener substance.

As for `Cc1nn(C)c(O)c1C(=O)c1ccc(C(F)(F)F)cc1S(C)(=O)=O` [A], in the data set on summer wheat (300 g of a.i./ha), the “Damage of summer wheat” value worked out at 15%. Further, in the data set on STEME (37.5 g of a.i./ha, 100% = plants have died), the “Activity against STEME” value is 50%. As for `N#Cc1cc(Br)c(O)c(Br)c1` [Component B1.2, bromoxynil], in the data set on summer wheat (1680 g of a.i./ha), the “Damage of summer wheat” value was found to be 25%. Besides, the “Activity against STEME” value with STEME (140 g of a.i./ha) was found to be 70%. With `O=C(Nc1ccc(F)cc1F)c1cccnc1Oc1cccc(C(F)(F)F)c1` [Component B4.1, diflufenican], the “Activity against STEME” value in the data set with STEME (75 g of a.i./ha) worked out at 70%. For `CCOC(=O)C1=NN(c2ccc(Cl)cc2Cl)C(C)(C(=O)OCC)C1` (stereo not drawn) [Component C1, mefenpyr-diethyl], in the data set on STEME (9.4 g of a.i./ha), the “Activity against STEME” value was 0%.
